Source: US20200291018A1, “TAM KINASE INHIBITORS” (SYROS PHARMACEUTICALS, INC., priority 2017, published 2020)
pIC50: −log10 of the molar value.

Legend:
MERTK = biological target: T1, MERTK (Homo sapiens, UniProt Q12866); assay: TR-FRET kinase activity assay, MERTK; assay type: biochemical; details: for pIC50: TR-FRET activity assay, ATP at Km, 60 minutes, read-out: Mer IC50; for Mer/Flt3 ratio (FLT3 IC50/Mer IC50): ratio calculated as FLT3 IC50/Mer IC50
T1 sequence (Q12866 21-999): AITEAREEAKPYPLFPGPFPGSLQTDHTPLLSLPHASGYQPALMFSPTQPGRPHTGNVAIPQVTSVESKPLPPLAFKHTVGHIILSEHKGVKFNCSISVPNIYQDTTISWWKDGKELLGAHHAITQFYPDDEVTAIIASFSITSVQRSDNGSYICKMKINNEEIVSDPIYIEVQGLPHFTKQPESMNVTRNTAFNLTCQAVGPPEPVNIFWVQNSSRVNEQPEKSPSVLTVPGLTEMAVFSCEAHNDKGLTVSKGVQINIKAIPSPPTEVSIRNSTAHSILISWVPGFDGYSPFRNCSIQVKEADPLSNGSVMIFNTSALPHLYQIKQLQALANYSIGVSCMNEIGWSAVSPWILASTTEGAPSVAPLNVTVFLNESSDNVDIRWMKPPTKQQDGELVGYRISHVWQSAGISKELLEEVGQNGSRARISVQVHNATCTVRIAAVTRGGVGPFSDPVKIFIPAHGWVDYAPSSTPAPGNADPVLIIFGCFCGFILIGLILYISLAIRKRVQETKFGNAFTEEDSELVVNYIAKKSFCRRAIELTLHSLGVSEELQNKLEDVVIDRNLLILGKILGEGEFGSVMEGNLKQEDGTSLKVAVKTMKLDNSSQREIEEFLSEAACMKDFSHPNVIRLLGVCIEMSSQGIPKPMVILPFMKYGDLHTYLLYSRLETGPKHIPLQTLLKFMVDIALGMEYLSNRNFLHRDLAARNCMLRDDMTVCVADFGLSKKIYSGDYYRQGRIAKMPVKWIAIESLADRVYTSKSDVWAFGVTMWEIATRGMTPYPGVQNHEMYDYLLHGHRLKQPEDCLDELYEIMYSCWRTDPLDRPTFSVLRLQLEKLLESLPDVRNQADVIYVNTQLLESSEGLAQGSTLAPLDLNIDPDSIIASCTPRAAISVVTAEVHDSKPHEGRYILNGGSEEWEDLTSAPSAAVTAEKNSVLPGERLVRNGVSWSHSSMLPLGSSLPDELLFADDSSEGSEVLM
How it was run: (§1)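 TR-FRET signal from Eu-labeled phospho-site antibody bound to tyrosine-phosphorylated fluorescent peptide; inhibition lowers signal, giving IC50. Reactions: 50 mM HEPES pH 7.5, 10 mM MgCl2, 1 mM EGTA, 0.01% Brij 35, 1 mM DTT, ATP at Km per enzyme, 60 min, RT.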

TYRO3 = biological target: T2, TYRO3 (Homo sapiens, UniProt Q06418); assay: TR-FRET kinase activity assay, TYRO3; assay type: biochemical; details: ATP at Km, 60 minutes
T2 sequence (Q06418 41-890): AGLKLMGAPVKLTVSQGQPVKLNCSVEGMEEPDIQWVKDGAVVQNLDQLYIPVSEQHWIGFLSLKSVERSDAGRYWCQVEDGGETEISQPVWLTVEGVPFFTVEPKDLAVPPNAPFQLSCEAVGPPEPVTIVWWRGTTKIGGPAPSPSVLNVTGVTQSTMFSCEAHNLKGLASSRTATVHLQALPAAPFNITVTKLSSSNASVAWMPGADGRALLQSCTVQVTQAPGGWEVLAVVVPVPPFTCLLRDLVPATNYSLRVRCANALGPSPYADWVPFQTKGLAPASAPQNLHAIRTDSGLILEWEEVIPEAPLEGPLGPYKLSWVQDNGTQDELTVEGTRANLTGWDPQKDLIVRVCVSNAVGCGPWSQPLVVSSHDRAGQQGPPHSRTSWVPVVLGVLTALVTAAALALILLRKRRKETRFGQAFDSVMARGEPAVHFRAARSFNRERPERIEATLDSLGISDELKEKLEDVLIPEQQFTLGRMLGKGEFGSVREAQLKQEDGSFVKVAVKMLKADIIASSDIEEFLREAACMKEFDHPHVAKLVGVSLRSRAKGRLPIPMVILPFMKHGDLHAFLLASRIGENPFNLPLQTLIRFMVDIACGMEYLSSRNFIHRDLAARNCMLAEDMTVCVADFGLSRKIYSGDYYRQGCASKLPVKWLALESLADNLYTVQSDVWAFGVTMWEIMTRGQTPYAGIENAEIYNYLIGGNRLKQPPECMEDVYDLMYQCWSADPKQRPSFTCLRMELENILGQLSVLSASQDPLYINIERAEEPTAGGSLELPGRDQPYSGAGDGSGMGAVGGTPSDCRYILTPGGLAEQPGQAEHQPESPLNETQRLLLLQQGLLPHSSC
How it was run: as §1

Row | Compound | pIC50 (MERTK) | Mer/Flt3 ratio (FLT3 IC50/Mer IC50) (MERTK) | pIC50 (TYRO3)
1 | COC[C@H](C)Nc1ncc2c(OC3CCOCC3)ncc(-c3ccc(F)cc3)c2n1 [Compound 395] | 6.00 to 7.00 | ++ (a ratio of between 10 and 100) | 5.00 to 6.00
2 | COC[C@H](C)Nc1ncc2c(OC3CCOCC3)ncc(-c3ccc(C#N)cc3)c2n1 [Compound 396] | ≥ 7.00 | +++ (a ratio of >100) | 6.00 to 7.00
3 | O=C(O)c1ccc(Nc2ncc3c(OC4CCOCC4)ncc([C@H]4CC[C@H](O)CC4)c3n2)cc1 [Compound 397] | ≥ 7.00 | ++ (a ratio of between 10 and 100) | ≥ 7.00
4 | CNC(=O)c1ccc(Nc2ncc3c(OC4CCOCC4)ncc([C@H]4CC[C@H](O)CC4)c3n2)cc1 [Compound 398] | ≥ 7.00 | + (a ratio of >2.0 and <10) | ≥ 7.00
5 | NC(=O)c1ccc(Nc2ncc3c(OC4CCOCC4)ncc([C@H]4CC[C@H](O)CC4)c3n2)cc1 [Compound 399] | ≥ 7.00 | NS (a ratio of ≤2.0) | ≥ 7.00
6 | COC[C@H](C)Nc1ncc2c(OC3CCOCC3)ncc(-c3ccc(S(C)(=O)=O)cc3)c2n1 [Compound 400] | 6.00 to 7.00 | ++ (a ratio of between 10 and 100) | 6.00 to 7.00
7 | C[C@H](CF)Nc1ncc2c(OC3CCOCC3)ncc([C@H]3CC[C@H](O)CC3)c2n1 [Compound 401] | ≥ 7.00 | +++ (a ratio of >100) | 6.00 to 7.00
8 | C[C@@H](CC(F)(F)F)Nc1ncc2c(O[C@H]3C[C@@H](CN4CCOCC4)C3)ncc([C@H]3CC[C@H](O)CC3)c2n1 [Compound 402] | ≥ 7.00 | +++ (a ratio of >100) | ≥ 7.00
9 | COC[C@H](C)Nc1ncc2c(C(F)(F)F)ncc([C@H]3CC[C@H](O)CC3)c2n1 [Compound 403] | 6.00 to 7.00 | ++ (a ratio of between 10 and 100) | 5.00 to 6.00
10 | CC1(Nc2ncc3c(OC4CCOCC4)ncc(-c4cccc(NS(C)(=O)=O)c4)c3n2)CC1 [Compound 404] | ≥ 7.00 | ++ (a ratio of between 10 and 100) | 6.00 to 7.00
11 | CC1(Nc2ncc3c(OC4CCOCC4)ncc(-c4cccc(S(=O)(=O)N5CCC5)c4)c3n2)CC1 [Compound 405] | ≥ 7.00 | +++ (a ratio of >100) | 6.00 to 7.00
12 | C[C@H](CC(F)(F)F)Nc1ncc2c(O[C@H]3C[C@@H](O)C3)ncc([C@H]3CC[C@H](O)CC3)c2n1 [Compound 406] | ≥ 7.00 | +++ (a ratio of >100) | ≥ 7.00
13 | C[C@@H](COC(F)F)Nc1ncc2c(O[C@H]3C[C@@H](O)C3)ncc([C@H]3CC[C@H](O)CC3)c2n1 [Compound 407] | ≥ 7.00 | +++ (a ratio of >100) | ≥ 7.00
14 | C[C@@H](CC(F)(F)F)Nc1ncc2c(O[C@H]3C[C@@H](N4CCOCC4)C3)ncc([C@H]3CC[C@H](O)CC3)c2n1 [Compound 408] | ≥ 7.00 | +++ (a ratio of >100) | ≥ 7.00
15 | C[C@@H](CC(F)(F)F)Nc1ncc2c(O[C@H]3C[C@@H](O)C3)ncc(-c3ccc(C4(C#N)CC4)cc3)c2n1 [Compound 409] | ≥ 7.00 | ++ (a ratio of between 10 and 100) | ≥ 7.00
